According to US7074789B2, “Kinase inhibitors” (Amgen Inc., priority 1999, dated 2006):
Where two headings read alike, the source gives them in different places.

How the values were obtained:
Format in all cases: biochemical
[1] = biological target: T1, Lck (Homo sapiens, UniProt P06239); experiment: Kinase inhibition assay (33P transfer), Lck; conditions: read-out: Lck-1
T1 construct: Kinases are expressed as either kinase domains or full length constructs; made in house
Summary of the method: (§1)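 Enzyme activity is taken as the amount of 33PO4 moved from ATP onto poly(Glu, Tyr) 4:1 or poly(Arg, Ser) 3:1 fixed to the plate surface. Unbound label is removed with 0.5% phosphoric acid before scintillation counting.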

[2] = biological target: T2, Zap-70 (Homo sapiens, UniProt P43403); experiment: Kinase inhibition assay (33P transfer), Zap-70; conditions: read-out: Zap-1
T2 construct: Kinases are expressed as either kinase domains or full length constructs; made in house
T2 sequence (P43403 1-619): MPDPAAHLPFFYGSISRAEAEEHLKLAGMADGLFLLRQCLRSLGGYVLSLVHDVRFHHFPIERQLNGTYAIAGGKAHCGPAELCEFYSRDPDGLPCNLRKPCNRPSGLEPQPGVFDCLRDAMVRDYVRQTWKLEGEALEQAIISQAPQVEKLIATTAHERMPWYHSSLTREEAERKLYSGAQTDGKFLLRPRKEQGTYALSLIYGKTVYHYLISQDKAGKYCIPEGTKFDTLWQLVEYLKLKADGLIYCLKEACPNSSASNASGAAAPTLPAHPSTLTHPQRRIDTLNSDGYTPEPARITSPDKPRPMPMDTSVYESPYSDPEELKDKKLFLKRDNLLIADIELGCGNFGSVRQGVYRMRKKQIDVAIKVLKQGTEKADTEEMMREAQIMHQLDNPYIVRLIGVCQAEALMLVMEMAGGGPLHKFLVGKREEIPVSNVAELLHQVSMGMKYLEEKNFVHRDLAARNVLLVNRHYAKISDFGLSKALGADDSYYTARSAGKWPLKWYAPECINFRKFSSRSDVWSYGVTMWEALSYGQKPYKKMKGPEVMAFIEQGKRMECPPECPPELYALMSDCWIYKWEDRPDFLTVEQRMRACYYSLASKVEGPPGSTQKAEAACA
Summary of the method: as §1

[3] = biological target: T3, Itk (Homo sapiens, UniProt Q08881); experiment: Kinase inhibition assay (33P transfer), Itk; conditions: read-out: Itk-1
T3 construct: Kinases are expressed as either kinase domains or full length constructs; made in house
T3 sequence (Q08881 1-620): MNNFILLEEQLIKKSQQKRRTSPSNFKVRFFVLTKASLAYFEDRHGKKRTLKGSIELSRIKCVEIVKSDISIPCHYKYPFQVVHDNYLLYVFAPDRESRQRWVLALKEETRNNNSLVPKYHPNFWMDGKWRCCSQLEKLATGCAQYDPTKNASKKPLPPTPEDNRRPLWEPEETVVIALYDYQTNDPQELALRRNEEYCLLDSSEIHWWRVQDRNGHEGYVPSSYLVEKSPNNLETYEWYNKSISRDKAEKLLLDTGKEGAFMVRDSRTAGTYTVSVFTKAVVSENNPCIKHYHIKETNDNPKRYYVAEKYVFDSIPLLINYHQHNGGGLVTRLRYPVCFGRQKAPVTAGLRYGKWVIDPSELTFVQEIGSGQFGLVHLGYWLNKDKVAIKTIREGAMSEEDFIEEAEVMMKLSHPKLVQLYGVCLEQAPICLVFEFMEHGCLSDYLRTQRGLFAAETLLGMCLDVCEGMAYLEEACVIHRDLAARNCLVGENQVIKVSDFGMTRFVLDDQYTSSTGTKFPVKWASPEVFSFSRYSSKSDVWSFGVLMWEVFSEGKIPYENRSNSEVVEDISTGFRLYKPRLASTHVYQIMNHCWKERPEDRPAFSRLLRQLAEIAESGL
Summary of the method: (§2)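 Recombinant kinase domains or full-length GST- or His-tagged constructs, from E. coli or baculovirus/High Five cells, sometimes with regulatory polypeptides. Transfer of 33P from ATP to plate-bound poly(Glu,Tyr) 4:1 or poly(Arg,Ser) 3:1 counted by liquid scintillation after phosphoric acid wash; IC50 is the concentration halving incorporation.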

[4] = biological target: T4, EGFR (Homo sapiens, UniProt P00533); experiment: Kinase inhibition assay (33P transfer), EGFR; conditions: Table 2, kinase inhibition class; read-out: EGFR-1
T4 construct: Kinases are expressed as either kinase domains or full length constructs; made in house
T4 sequence (P00533 25-1210, species assumed): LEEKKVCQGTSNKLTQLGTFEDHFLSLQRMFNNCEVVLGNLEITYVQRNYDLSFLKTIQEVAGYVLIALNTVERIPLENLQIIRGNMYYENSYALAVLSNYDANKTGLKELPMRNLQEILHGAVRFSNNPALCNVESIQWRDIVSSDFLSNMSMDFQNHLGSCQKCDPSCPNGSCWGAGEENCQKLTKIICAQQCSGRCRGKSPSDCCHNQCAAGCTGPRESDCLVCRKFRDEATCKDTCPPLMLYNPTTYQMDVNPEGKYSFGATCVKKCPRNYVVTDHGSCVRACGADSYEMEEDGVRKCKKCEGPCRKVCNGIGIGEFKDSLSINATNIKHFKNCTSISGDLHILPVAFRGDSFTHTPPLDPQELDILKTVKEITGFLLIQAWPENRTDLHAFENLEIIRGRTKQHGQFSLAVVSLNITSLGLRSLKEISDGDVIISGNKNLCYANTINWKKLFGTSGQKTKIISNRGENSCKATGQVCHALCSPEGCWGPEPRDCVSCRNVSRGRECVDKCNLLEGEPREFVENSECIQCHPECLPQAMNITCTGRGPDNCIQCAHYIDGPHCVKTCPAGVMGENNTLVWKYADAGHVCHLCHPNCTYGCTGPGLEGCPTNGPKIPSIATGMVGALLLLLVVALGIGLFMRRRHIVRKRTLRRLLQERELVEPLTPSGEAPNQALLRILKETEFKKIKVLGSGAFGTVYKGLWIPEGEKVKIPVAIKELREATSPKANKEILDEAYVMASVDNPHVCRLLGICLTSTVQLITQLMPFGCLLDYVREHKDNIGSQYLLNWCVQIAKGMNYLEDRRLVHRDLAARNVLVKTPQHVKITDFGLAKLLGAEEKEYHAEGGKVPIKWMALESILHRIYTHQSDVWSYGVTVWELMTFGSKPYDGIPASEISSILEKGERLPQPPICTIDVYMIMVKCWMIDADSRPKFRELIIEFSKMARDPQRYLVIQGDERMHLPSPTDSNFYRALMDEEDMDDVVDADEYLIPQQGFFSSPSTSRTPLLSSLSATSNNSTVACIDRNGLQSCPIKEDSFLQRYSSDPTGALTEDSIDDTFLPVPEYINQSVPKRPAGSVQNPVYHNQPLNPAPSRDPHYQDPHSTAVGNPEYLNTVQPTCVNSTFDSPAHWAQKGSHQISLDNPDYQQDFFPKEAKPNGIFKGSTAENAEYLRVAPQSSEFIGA
Summary of the method: as §2

[5] = biological target: T5, Kdr (Homo sapiens, UniProt P35968); experiment: Kinase inhibition assay (33P transfer), Kdr; conditions: read-out: KDR-1
T5 construct: Kinases are expressed as either kinase domains or full length constructs; made in house
Summary of the method: as §1

[6] = biological target: T6, c-Met (Homo sapiens, UniProt P08581); experiment: Kinase inhibition assay (33P transfer), c-Met; conditions: Table 2, kinase inhibition class; read-out: Met-1
T6 construct: Kinases are expressed as either kinase domains or full length constructs; made in house
T6 sequence (P08581 25-1390): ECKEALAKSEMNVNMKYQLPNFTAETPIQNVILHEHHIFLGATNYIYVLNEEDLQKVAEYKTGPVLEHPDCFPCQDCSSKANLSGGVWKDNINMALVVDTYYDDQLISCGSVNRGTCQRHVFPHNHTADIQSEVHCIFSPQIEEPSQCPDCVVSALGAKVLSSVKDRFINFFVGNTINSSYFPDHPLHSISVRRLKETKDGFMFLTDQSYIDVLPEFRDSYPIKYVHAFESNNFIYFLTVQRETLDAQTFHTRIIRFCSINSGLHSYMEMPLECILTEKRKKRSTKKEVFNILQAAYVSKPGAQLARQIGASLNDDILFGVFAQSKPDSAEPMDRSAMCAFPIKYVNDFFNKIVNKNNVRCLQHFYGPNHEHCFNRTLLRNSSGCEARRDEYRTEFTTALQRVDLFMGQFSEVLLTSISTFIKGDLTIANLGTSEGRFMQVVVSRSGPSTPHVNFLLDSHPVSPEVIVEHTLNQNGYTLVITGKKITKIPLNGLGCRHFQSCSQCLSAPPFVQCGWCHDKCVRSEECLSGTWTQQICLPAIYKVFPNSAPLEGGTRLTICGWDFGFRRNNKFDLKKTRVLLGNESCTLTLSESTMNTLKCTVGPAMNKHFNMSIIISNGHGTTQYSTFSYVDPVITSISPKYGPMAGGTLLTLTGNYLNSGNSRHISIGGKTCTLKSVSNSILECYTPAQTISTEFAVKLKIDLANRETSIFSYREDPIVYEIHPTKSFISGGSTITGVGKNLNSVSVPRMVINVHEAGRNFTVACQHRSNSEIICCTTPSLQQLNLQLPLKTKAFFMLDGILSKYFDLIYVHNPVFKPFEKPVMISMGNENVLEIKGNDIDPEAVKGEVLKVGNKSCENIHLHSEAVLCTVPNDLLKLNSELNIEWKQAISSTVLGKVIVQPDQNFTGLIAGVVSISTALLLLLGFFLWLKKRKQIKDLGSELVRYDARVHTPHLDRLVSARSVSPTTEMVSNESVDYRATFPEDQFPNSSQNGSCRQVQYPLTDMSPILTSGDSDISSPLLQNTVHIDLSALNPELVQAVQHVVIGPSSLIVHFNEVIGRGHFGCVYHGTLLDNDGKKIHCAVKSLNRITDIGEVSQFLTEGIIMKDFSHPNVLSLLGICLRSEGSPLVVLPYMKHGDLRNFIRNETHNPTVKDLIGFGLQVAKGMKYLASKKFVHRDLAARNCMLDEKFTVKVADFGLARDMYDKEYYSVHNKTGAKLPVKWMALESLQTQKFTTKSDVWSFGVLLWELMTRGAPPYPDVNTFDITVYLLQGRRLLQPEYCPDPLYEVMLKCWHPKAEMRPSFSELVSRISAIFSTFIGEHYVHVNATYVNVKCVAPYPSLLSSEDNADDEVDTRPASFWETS
Summary of the method: as §2

[7] = biological target: T7, AKT (Homo sapiens, UniProt Q9Y243); experiment: Kinase inhibition assay (33P transfer), AKT; conditions: Table 2, kinase inhibition class; read-out: AKT3-1
T7 construct: Kinases are expressed as either kinase domains or full length constructs; made in house
T7 sequence (Q9Y243 whole entry, the tested form may be a part): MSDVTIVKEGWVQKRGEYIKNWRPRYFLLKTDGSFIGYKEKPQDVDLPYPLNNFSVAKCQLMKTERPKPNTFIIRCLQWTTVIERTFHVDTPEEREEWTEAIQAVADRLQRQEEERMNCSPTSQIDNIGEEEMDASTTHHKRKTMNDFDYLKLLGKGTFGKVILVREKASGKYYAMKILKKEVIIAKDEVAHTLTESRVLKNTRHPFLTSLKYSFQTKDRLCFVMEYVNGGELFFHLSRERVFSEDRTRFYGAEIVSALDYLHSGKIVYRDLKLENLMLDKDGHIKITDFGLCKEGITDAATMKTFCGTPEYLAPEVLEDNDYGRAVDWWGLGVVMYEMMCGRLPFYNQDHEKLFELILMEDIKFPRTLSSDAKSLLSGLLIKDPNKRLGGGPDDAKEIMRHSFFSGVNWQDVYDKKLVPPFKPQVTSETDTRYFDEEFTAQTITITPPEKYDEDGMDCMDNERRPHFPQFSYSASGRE
Summary of the method: as §1

[8] = biological target: T8, IGFR-1 (Homo sapiens, UniProt P08069); experiment: Kinase inhibition assay (33P transfer), IGFR-1; conditions: Table 2, kinase inhibition class
T8 construct: Kinases are expressed as either kinase domains or full length constructs; made in house
T8 sequence (P08069 31-1367): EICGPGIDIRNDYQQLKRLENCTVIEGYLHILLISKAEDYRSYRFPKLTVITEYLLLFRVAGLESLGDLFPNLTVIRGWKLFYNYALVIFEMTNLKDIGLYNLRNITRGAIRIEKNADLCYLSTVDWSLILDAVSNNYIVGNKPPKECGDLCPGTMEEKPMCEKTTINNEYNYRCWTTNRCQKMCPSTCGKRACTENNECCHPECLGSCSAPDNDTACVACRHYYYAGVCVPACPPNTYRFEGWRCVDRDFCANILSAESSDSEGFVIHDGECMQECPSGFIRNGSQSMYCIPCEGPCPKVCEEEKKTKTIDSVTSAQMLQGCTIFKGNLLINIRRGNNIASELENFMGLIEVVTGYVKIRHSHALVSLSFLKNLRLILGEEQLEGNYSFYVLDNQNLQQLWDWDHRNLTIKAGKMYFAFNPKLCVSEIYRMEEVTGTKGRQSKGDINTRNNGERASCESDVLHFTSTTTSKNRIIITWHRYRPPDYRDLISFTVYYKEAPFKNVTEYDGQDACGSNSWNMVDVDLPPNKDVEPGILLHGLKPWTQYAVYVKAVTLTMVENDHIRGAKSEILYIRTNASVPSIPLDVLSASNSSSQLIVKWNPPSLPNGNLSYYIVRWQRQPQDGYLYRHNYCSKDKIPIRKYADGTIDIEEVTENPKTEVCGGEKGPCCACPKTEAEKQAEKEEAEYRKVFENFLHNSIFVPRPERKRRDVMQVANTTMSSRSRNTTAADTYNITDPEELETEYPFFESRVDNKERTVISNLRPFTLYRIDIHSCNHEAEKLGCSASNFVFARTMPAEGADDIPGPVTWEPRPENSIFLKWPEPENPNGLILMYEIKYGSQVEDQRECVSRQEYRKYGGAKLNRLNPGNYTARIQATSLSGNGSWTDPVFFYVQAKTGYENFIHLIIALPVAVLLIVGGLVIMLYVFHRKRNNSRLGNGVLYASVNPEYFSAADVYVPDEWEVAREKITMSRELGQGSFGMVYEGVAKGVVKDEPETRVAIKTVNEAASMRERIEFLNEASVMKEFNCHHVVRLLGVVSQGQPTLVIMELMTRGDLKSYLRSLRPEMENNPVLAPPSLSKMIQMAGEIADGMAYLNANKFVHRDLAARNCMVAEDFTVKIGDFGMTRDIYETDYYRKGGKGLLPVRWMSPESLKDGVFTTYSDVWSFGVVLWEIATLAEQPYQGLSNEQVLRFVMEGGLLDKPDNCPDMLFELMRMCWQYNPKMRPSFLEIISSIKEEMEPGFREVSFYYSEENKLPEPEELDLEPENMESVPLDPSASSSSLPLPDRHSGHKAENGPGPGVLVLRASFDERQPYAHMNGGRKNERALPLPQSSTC

[9] = biological target: T9, ErbB2 (Homo sapiens, UniProt P04626); experiment: Kinase inhibition assay (33P transfer), ErbB2; conditions: read-out: ErbB2-2
T9 construct: Kinases are expressed as either kinase domains or full length constructs; made in house
Summary of the method: as §2

[10] = biological target: T8, IGFR-1; experiment: Kinase inhibition assay, IGFR-1 (Table 2); conditions: Table 2, kinase inhibition class
[11] = biological target: T10, PDGFRB (Homo sapiens, UniProt P09619); experiment: Kinase inhibition assay (33P transfer), PDGFRB; conditions: read-out: PDGFRB-1
T10 construct: Kinases are expressed as either kinase domains or full length constructs; made in house

T1 sequence (P06239 whole entry, species assumed, the tested form may be a part): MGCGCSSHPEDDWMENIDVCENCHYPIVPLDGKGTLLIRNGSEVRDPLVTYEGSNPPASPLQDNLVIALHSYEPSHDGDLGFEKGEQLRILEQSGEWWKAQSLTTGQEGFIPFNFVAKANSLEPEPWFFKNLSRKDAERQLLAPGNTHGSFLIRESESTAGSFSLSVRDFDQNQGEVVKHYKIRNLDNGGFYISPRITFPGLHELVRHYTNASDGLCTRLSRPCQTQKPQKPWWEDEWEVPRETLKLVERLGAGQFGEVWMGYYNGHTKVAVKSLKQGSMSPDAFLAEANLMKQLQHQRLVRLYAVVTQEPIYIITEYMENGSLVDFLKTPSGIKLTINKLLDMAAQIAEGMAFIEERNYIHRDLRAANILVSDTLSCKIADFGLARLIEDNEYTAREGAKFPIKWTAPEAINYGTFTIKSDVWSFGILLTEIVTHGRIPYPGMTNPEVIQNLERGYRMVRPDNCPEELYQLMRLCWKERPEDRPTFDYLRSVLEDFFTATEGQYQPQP

Row | IC50 ([1]; Table 3) [µM] | IC50 ([2]; Table 3) [µM] | IC50 ([3]; Table 3) [µM] | IC50 [4] [µM] | IC50 ([5]; Table 3) [µM] | IC50 [6] [µM] | IC50 [7] [µM] | IC50 [8] [µM] | IC50 [1] [µM] | IC50 [2] [µM] | IC50 [3] [µM] | IC50 [9] [µM] | IC50 [5] [µM] | IC50 [10] [µM] | IC50 [11] [µM] | Structure (SMILES)
1 | > 15 | > 15 | > 15 | > 15 | > 15 | > 15 | > 15 | > 15 | – | – | – | – | – | – | – | O=[N+]([O-])c1cccc(Nc2ncnc(-c3cccs3)n2)c1 [Compound 352]
2 | > 14.5 | > 14.5 | > 14.5 | > 14.5 | > 14.5 | > 14.5 | > 14.5 | > 14.5 | – | – | – | – | – | – | – | CC(=O)Nc1ccc(Nc2ncnc(-c3cccs3)n2)cc1 [Compound 355]
3 | > 14.4 | > 14.4 | > 14.4 | > 14.4 | 11.2 to 14.4 | > 14.4 | > 14.4 | > 14.4 | – | – | – | – | – | – | – | Clc1ncnc(Nc2ccc(OCc3ccccc3)cc2)n1 [Compound 153]
4 | – | – | – | < 0.827 | – | 4.96 to 7.24 | 4.96 to 7.24 | – | < 0.827 | 7.24 to 9.31 | 7.24 to 9.31 | 0.827 to 4.96 | 0.827 to 4.96 | < 0.827 | 0.827 to 4.96 | COc1cc(Nc2ncnc(Nc3ccc4nn(Cc5ccccc5)cc4c3)n2)cc(OC)c1OC [Compound 555]
5 | – | – | – | < 1.28 | – | 1.28 to 7.67 | > 14.4 | – | 1.28 to 7.67 | > 14.4 | > 14.4 | > 14.4 | > 14.4 | > 14.4 | 1.28 to 7.67 | CN(c1cccc(Cl)c1)c1ncnc(Nc2ccncc2)n1 [Compound 756]
6 | – | – | – | 0.799 to 4.79 | – | 0.799 to 4.79 | 0.799 to 4.79 | – | 0.799 to 4.79 | 0.799 to 4.79 | 0.799 to 4.79 | 0.799 to 4.79 | 0.799 to 4.79 | 0.799 to 4.79 | 0.799 to 4.79 | CNS(=O)(=O)Cc1ccc(Nc2ncnc(Nc3ccc4c(cnn4Cc4ccccc4)c3)n2)cc1 [Compound 736]

More lines, now with the values behind:

Row | Structure (SMILES) | IC50 ([1]; Table 3) [µM] | IC50 ([2]; Table 3) [µM] | IC50 ([3]; Table 3) [µM] | IC50 [4] [µM] | IC50 ([5]; Table 3) [µM] | IC50 [6] [µM] | IC50 [7] [µM] | IC50 [8] [µM] | IC50 [1] [µM] | IC50 [2] [µM] | IC50 [3] [µM] | IC50 [9] [µM] | IC50 [5] [µM] | IC50 [10] [µM] | IC50 [11] [µM]
7 | COc1cc(Nc2ncnc(-c3cccnc3)n2)cc(OC)c1OC [Compound 219] | > 13.3 | > 13.3 | > 13.3 | > 13.3 | 1.18 to 7.07 | > 13.3 | > 13.3 | > 13.3 | – | – | – | – | – | – | –
8 | COc1ccc(Nc2ncnc(N(C)c3ccc(Cl)c(Cl)c3)n2)cc1OC [Compound 758] | – | – | – | < 0.985 | – | < 0.985 | > 11.1 | – | < 0.985 | > 11.1 | > 11.1 | < 0.985 | 0.985 to 5.91 | 5.91 to 8.61 | < 0.985
9 | CN(c1ccccc1)c1ncnc(-n2c(N)nc3ccccc32)n1 [Compound 662] | – | – | – | 7.56 to 11 | – | > 14.2 | > 14.2 | – | 7.56 to 11 | > 14.2 | > 14.2 | 7.56 to 11 | 1.26 to 7.56 | 11 to 14.2 | > 14.2
10 | COc1cc(Nc2ncnc(-n3c(NCc4ncc[nH]4)nc4ccccc43)n2)cc(OC)c1OC [Compound 583] | – | – | – | > 9.5 | – | > 9.5 | > 9.5 | – | 0.845 to 5.07 | > 9.5 | 0.845 to 5.07 | > 9.5 | 5.07 to 7.39 | 0.845 to 5.07 | 0.845 to 5.07
11 | COc1ccc(CCNc2ncnc(N3CCCc4cc(C)ccc43)n2)cc1OC [Compound 771] | – | – | – | > 11.1 | – | > 11.1 | > 11.1 | – | > 11.1 | > 11.1 | > 11.1 | > 11.1 | 5.92 to 8.63 | > 11.1 | > 11.1
